Test results published in PubChem BioAssay AID248 (DTP/NCI, 2004).
Toxic doses and inconclusive results are not listed. No stated cut-off is given here; in the data, active means T/C of 150% or more; inactive means T/C below 125%.

Tested on: L1210 leukemia ip in BDF1 mice, survival T/C
Experiment: NCI In Vivo Anticancer Drug Screen. Data for tumor model L1210 Leukemia (intraperitoneal) in B6D2F1 (BDF1) mice
Conditions: endpoint: mean survival time, higher = longer survival
Summary of the method: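 Ratio derived from survival: compound-dosed mice over vehicle-dosed mice, all bearing a transplantable tumor.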

Measured: T/C

N#CSc1ncnc2nc[nH]c12
inactive: dose: 3.5 mg/kg/injection, schedule: Q01DX Z (ip), vehicle: water 104 % of control | dose: 5.3 mg/kg/injection, schedule: Q01DX Z (ip), vehicle: water 104 % of control | dose: 6.0 mg/kg/injection, schedule: Q01DX Z (ip), vehicle: water 105 % of control | dose: 8.0 mg/kg/injection, schedule: Q01DX Z (ip), vehicle: water 107 % of control | dose: 8.8 mg/kg/injection, schedule: Q01DX Z (ip), vehicle: water 114 % of control | dose: 12.0 mg/kg/injection, schedule: Q01DX Z (ip), vehicle: water 105 % of control | dose: 13.3 mg/kg/injection, schedule: Q01DX Z (ip), vehicle: water 108 % of control | dose: 20.0 mg/kg/injection, schedule: Q01DX Z (ip), vehicle: water 122 % of control

ON=C1CCCCCCC1
inactive: dose: 12.5 mg/kg/injection, schedule: Q04DX002 (ip), vehicle: Klucel (hydroxypropylcellulose) (HPC) 105 % of control | dose: 25.0 mg/kg/injection, schedule: Q04DX002 (ip), vehicle: Klucel (hydroxypropylcellulose) (HPC) 96 % of control | dose: 50.0 mg/kg/injection, schedule: Q04DX002 (ip), vehicle: Klucel (hydroxypropylcellulose) (HPC) 101 % of control

CCCN(CCC)CCSC(=S)NCCOC
inactive: dose: 4.0 mg/kg/injection, schedule: Q01DX001 (sc), vehicle: olive oil, sesame oil, peanut oil 110 % of control | dose: 8.0 mg/kg/injection, schedule: Q01DX001 (sc), vehicle: olive oil, sesame oil, peanut oil 112 % of control | dose: 16.0 mg/kg/injection, schedule: Q01DX001 (sc), vehicle: olive oil, sesame oil, peanut oil 116 % of control | dose: 32.0 mg/kg/injection, schedule: Q01DX001 (sc), vehicle: olive oil, sesame oil, peanut oil 118 % of control | dose: 50.0 mg/kg/injection, schedule: Q01DX001 (ip), vehicle: olive oil, sesame oil, peanut oil 96 % of control | dose: 50.0 mg/kg/injection, schedule: Q01DX009 (ip), vehicle: acetone 93 % of control | dose: 100.0 mg/kg/injection, schedule: Q01DX001 (ip), vehicle: acetone 110 % of control | dose: 100.0 mg/kg/injection, schedule: Q01DX001 (ip), vehicle: olive oil, sesame oil, peanut oil 92 % of control | dose: 100.0 mg/kg/injection, schedule: Q01DX009 (ip), vehicle: acetone 101 % of control | dose: 200.0 mg/kg/injection, schedule: Q01DX001 (ip), vehicle: acetone 104 % of control | dose: 200.0 mg/kg/injection, schedule: Q01DX001 (ip), vehicle: olive oil, sesame oil, peanut oil 103 % of control | dose: 400.0 mg/kg/injection, schedule: Q01DX001 (ip), vehicle: olive oil, sesame oil, peanut oil 88 % of control

Cc1ccc(Cc2cc(=O)[nH]c(=S)[nH]2)cc1
inactive: dose: 100.0 mg/kg/injection, schedule: Q04DX003 (ip), vehicle: Klucel (hydroxypropylcellulose) (HPC) 98 % of control | dose: 200.0 mg/kg/injection, schedule: Q04DX003 (ip), vehicle: Klucel (hydroxypropylcellulose) (HPC) 93 % of control | dose: 400.0 mg/kg/injection, schedule: Q04DX003 (ip), vehicle: Klucel (hydroxypropylcellulose) (HPC) 92 % of control

Cc1ccc(NC(=O)N(CCCl)N=O)cc1NC(=O)N(CCCl)N=O
active: dose: 177.0 mg/kg/injection, schedule: Q01DX001 (ip), vehicle: carboxymethylcellulose (CMC) 154 % of control | dose: 266.0 mg/kg/injection, schedule: Q01DX001 (ip), vehicle: carboxymethylcellulose (CMC) 152 % of control | dose: 266.0 mg/kg/injection, schedule: Q01DX009 (ip), vehicle: carboxymethylcellulose (CMC) 152 % of control | dose: 400.0 mg/kg/injection, schedule: Q01DX001 (ip), vehicle: carboxymethylcellulose (CMC) 157 % of control | dose: 400.0 mg/kg/injection, schedule: Q01DX009 (ip), vehicle: carboxymethylcellulose (CMC) 195 % of control | dose: 600.0 mg/kg/injection, schedule: Q01DX001 (ip), vehicle: carboxymethylcellulose (CMC) 158 % of control | dose: 600.0 mg/kg/injection, schedule: Q01DX009 (ip), vehicle: carboxymethylcellulose (CMC) 202 % of control

c1ccc(-c2cc[c]([Sn]([c]3ccccc3)([c]3ccccc3)[c]3ccccc3)cc2)cc1
inactive: dose: 100.0 mg/kg/injection, schedule: Q04DX002 (ip), vehicle: other 103 % of control | dose: 200.0 mg/kg/injection, schedule: Q04DX002 (ip), vehicle: other 107 % of control | dose: 400.0 mg/kg/injection, schedule: Q04DX002 (ip), vehicle: other 96 % of control

CS(=O)(=O)N(CC(=O)O)Cc1cccc(Cl)c1
inactive: dose: 100.0 mg/kg/injection, schedule: Q01DX009 (ip), vehicle: other 100 % of control | dose: 100.0 mg/kg/injection, schedule: Q04DX003 (ip), vehicle: other 100 % of control | dose: 200.0 mg/kg/injection, schedule: Q01DX009 (ip), vehicle: other 101 % of control | dose: 200.0 mg/kg/injection, schedule: Q04DX003 (ip), vehicle: other 102 % of control | dose: 400.0 mg/kg/injection, schedule: Q01DX009 (ip), vehicle: other 97 % of control | dose: 400.0 mg/kg/injection, schedule: Q04DX003 (ip), vehicle: other 103 % of control
